For two compounds, pKa and degraded results are on record in ChEMBL document CHEMBL4190390, “Rational Design of Novel 1,3-Oxazine Based β-Secretase (BACE1) Inhibitors: Incorporation of a Double Bond To Reduce P-gp Efflux Leading to Robust Aβ Reduction in the Brain” (J Med Chem, 2018).

In general, pKa refers to the pH at which an ionisable group is half protonated. High values mean a group that holds its proton tightly, low ones a group that gives up its proton readily.

Structures are written as SMILES.

Data set [1] can be described thus: Dissociation constant, pKa of the compound by capillary electrophoresis method. The data set is classed as physicochemical.
Data set [2] in a line: Drug degradation of the compound at 40 degC/89 % relative humidity. In kind it is physicochemical. As to conditions: read-out: Drug degradation.

Compound `C[C@@]1(c2ccccc2F)CCOC(N)=N1` registered a pKa in data set [1] of 9.8.

For `C[C@@]1(c2cc(NC(=O)c3ccc(C#N)cn3)ccc2F)C=C(CF)OC(N)=N1`, the degraded in data set [2] came out at 0.06%.
